# Experimental data published in patent publication US20240342201A1, “ASYMMETRIC GPR84 ANTAGONIST AND USE THEREOF” (priority 2021, published 2024).
# Like-named read-outs stand apart in the source and are kept apart here.
# How the values were obtained:
# [1] = system: inflammatory bowel disease; conditions: trial terminated; cited from earlier work
# [2] = Tissue distribution and oral exposure in ICR mice (LC-MS); type: in vivo; conditions: oral 5 mg/kg; for AUC(0-t): mouse
# Experimental: The tissue distribution experiment of compounds XYF573c and LSX472a of the present invention in ICR mice was carried out, and their distribution in plasma and organs and oral exposure (AUC0-8h) were compared.
# ICR mice were purchased from Shanghai Experimental Animal Research Center.
# The concentrations of the compounds in plasma and various organs of ICR mice were detected by LC-MS.
# During the experiment, the mice were fasted for more than 12 hours, had free access to water, and provided with food 2 hours after administration.
# Both compounds XYF573c and LSX472a were administered orally, the dose was 5 mg/kg, and the solvent was DMSO/0.5% HPMC (5/95, v/v), N=3.
# At 0.5 h, 2 h and 8 h after oral administration, about 20 μL of mouse heart blood, portal vein plasma or 20 mg of liver, lung, and ileum tissues were taken in clean centrifuge tubes, 200 μL of MeOH/ACN (50/50, v/v) was added and spun in a vortex mixer for 1 min. The mixtures were centrifuged at 15,000 rpm for 5 min and 20 μL of supernatants were mixed with 20 μL of ACN/water (1/1, v/v) and quantified by LC-MS.
# The values of AUC0-8h were calculated by trapezoidal method based on the concentrations of the compound at 0.5 h, 2 h and 8 h.
# GPR84 [3] = target: T1, GPR84 (Homo sapiens, UniProt Q9NQS5); assay: GPR84 antagonistic activity, calcium flux (Fluo-4) assay with agonist 6-OAU; type: cell-based; design: expressed in transfected cells; host or cells: HEK293; conditions: IC50, HEK293 cells with GPR84 and Gα16; Fluo-4 calcium signal; agonist 6-OAU around EC80
# Experimental: The human GPR84 cell line was obtained by transfecting a HEK293 cell line with a plasmid encoding GPR84 and Gα16 proteins. Fluorescent dye Fluo-4AM was purchased from Invitrogen.
# Intracellular Ca^2+ ion is a very important second messenger of G protein-coupled receptor signaling pathway. […] Fluo-4 is a Ca^2+ ion-specific fluorescent probe that binds quantitatively to Ca^2+ ions and emits fluorescence.
# Detection of receptor inhibitory effect by GPR84 antagonist: After incubated with fluorescent dye Fluo-4, GPR84 cells were incubated with different concentrations of antagonistic compounds for a period of time to occupy the binding site of agonist to GPR84 (antagonistic binding site). A certain concentration of agonist (6-n-octylaminouracil, 6-OAU) was added to compete with the antagonist compound for binding sites. […] The half-inhibitory concentration (IC50) of the compound was calculated by using GraphPad PRISM software.
# The above ingredients were weighed and dissolved in ultrapure water. pH was adjusted to 7.4 by using hydrochloric acid or NaOH solution. The mixture was filtered and stored at 4° C. for one month.
# The buffer was prepared on site.
# The cells were seeded in a 96-well plate at a density of 4×10^4 cells/well. After 24 hours of culture, the culture medium was removed, and 40 μL of Fluo-4AM fluorescent staining solution was added to each well and incubated in a 37° C. incubator for 40 minutes. After the dye was aspirated and discarded, 50 μL of the tested compound was added and incubated at room temperature for 10 minutes.
# Target sequence in this assay (Q9NQS5 whole entry): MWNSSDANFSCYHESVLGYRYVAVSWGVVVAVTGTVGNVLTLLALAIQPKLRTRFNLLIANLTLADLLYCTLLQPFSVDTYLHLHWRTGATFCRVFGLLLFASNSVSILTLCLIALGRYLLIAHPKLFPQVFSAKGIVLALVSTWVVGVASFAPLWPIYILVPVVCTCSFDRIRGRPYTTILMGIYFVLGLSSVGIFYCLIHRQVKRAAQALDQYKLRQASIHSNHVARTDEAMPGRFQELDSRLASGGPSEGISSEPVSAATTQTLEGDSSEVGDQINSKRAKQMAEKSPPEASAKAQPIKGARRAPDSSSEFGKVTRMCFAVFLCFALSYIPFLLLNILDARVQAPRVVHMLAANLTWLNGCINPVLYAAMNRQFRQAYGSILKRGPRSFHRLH
# GPR84 [4] = target: T1, GPR84; conditions: cited from earlier work
# Target sequence in this assay (Q9NQS5 whole entry, species assumed): as the sequence (Q9NQS5 whole entry) above
# GPR40 = GPR40 (Homo sapiens, UniProt O14842); conditions: cited from earlier work
# GPR120 = target: T2, GPR120 (Homo sapiens, UniProt Q5NUL3); conditions: cited from earlier work
# T2 sequence (Q5NUL3 1-361): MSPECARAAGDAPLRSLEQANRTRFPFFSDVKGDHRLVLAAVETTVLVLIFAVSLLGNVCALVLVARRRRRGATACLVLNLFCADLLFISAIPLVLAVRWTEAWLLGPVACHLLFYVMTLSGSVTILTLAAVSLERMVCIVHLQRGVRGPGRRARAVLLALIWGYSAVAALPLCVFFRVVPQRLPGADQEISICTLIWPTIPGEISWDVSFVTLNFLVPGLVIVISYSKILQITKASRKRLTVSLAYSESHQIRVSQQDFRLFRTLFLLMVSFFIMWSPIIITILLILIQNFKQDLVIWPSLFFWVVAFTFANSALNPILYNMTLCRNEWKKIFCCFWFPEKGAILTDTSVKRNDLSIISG
# GPR40, sequence (O14842 whole entry, species assumed): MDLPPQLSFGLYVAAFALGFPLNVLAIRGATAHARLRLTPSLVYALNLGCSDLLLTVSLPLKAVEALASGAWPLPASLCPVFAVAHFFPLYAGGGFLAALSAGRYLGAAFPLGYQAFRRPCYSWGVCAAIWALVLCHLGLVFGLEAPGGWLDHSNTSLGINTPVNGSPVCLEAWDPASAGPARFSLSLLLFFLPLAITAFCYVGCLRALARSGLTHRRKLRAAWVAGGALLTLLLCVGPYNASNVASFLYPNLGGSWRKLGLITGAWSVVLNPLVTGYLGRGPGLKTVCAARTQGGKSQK
smiles,measurement,setting,value
O=c1nc(OC[C@@H]2COCCO2)cc2n1CCc1cc(C#CC3CC3)ccc1-2 [GLPG1205],efficacy in phase II clinical study versus placebo,[1],lack of significant difference in efficacy from the placebo group
COc1cccc2c1Sc1ccccc1C=C2OP(=O)(O)O[C@@H]1C[C@@H]2CC[C@@]1(C)C2(C)C [LSX472a],AUC(0-t),"[2]; heart plasma, read-out: AUC0-8h, Heart plasma",7750 ng·h/mL
same,AUC(0-t),"[2]; portal vein plasma, read-out: AUC0-8h, Portal vein plasma",8820 ng·h/mL
same,exposure in the intestinal tract (such as Ileum) compared to XYF573c,[2],significantly increased
same,"AUC0-8h, Ileum",[2]; ileum,62902.60 ng·h/g
same,"AUC0-8h, Liver",[2]; liver,4387.83 ng·h/g
same,"AUC0-8h, Lung",[2]; lung,745.34 ng·h/g
same,increase in oral exposure (Plasma AUC0-8h) compared to XYF573c,[2]; plasma,13 fold
COc1cccc2c1Sc1ccccc1C=C2OP(=O)(O)O[C@@H]1CC[C@@]2(C)C(C1)C[C@@H](O)[C@H]1[C@@H]3CC[C@H]([C@H](C)CCC(=O)O)[C@@]3(C)CC[C@@H]12 (some centres unmarked) [LSX710],IC50,GPR84 [3],100 to 1000 nM
COc1cccc2c1Sc1ccccc1C=C2OP(=O)(O)O[C@@H]1CC[C@@]2(C)[C@@H](C1)C[C@@H](O)[C@@H]1[C@@H]2C[C@H](O)[C@]2(C)[C@@H]([C@H](C)CCC(=O)O)CC[C@@H]12 [LSX726],IC50,GPR84 [3],1000 to 10000 nM
COc1cccc2c1Sc1ccccc1C=C2OP(=O)(O)OCCCNC(=O)CC[C@@H](C)[C@H]1CC[C@H]2[C@@H]3[C@H](O)C[C@@H]4C[C@H](O)CC[C@]4(C)[C@H]3C[C@H](O)[C@]12C [LSX784],IC50,GPR84 [3],1000 to 10000 nM
"CCCCCc1cc(CCCCC)cc(CC(=O)[O-])c1.[Na+] [PBI-4547, 3,5-di-n-pentyl phenylacetate sodium]",antagonistic activity on GPR84,GPR84 [4],at the micromolar level
same,agonistic activity on GPR40,GPR40,agonistic activity
same,agonistic activity on GPR120,GPR120,agonistic activity
